Active and inactive are the calls of the source. The calls are words filed in the database; no cut-off is given here.
What was measured:
[1] = target: Amyloid-beta precursor protein (Homo sapiens) (UniProt P05067); assay: Inhibition of amyloid beta (1 to 42) (unknown origin) self induced aggregation assessed as fluorescence emission rate constant K at 40 to 5000 uM […] by ThT-based fluorometric method (reference value: 1.3 +/- 0.1)
[2] = target: Amyloid-beta precursor protein (Homo sapiens) (UniProt P05067); assay: Inhibition of amyloid beta (1 to 42) (unknown origin) self induced aggregation assessed as difference between final and initial fluorescence emission at 40 to 5000 uM […] by ThT-based fluorometric method (reference value: 52 +/- 7 a.u.)
[3] = target: Amyloid-beta precursor protein (Homo sapiens) (UniProt P05067); assay: (§1) Inhibition of amyloid beta (1 to 42) (unknown origin) self induced aggregation assessed as time at which amplitude of ThT emission is 50% of difference between final and initial fluorescence emission at 40 to 5000 uM after 3 hrs by ThT-based fluorometric method (reference value: 11 +/- 1 hrs)
[4] = target: Amyloid-beta precursor protein (Homo sapiens) (UniProt P05067); assay: Inhibition of amyloid beta (1 to 42) (unknown origin) self induced aggregation assessed as lag time at 40 to 5000 uM […] by ThT-based fluorometric method (reference value: 8.3 +/- 0.7 hrs)
[5] = target: Amyloid-beta precursor protein (Homo sapiens) (UniProt P05067); assay: Inhibition of amyloid beta (1 to 42) (unknown origin) self induced aggregation […] by ThT-based fluorometric method
[6] = Antiglycating activity in phosphate buffer assessed as decrease in ACR levels at 10 mM at pH 7.4 after 1 hr by RP-HPLC analysis relative to control; assay type: physicochemical; design: scale not given: the % may be the effect or the level left; conditions: pH 7.4, 1 h, 10000 µM
[7] = Antiglycating activity in phosphate buffer assessed as decrease in ACR levels at 10 mM at pH 7.4 up to 4 hrs by RP-HPLC analysis relative to control; assay type: physicochemical; design: scale not given: the % may be the effect or the level left; conditions: pH 7.4, 4 h, 10000 µM
[8] = Antiglycating activity in phosphate buffer assessed as ACR-compound adduct formation at 10 mM at pH 7.4 after 1 to 24 hrs by HPLC-MS/MS spectra analysis; assay type: physicochemical; conditions: pH 7.4, 10000 µM
[9] = Drug metabolism assessed as human recombinant carnosinase mediated compound hydrolysis at 0.5 mM after 1.5 hrs by RP-HPLC analysis; assay type: ADME; conditions: 500 µM
[10] = Antiglycating activity in phosphate buffer assessed as ACR levels at 10 mM at pH 7.4 after 24 hr by RP-HPLC analysis relative to control; assay type: physicochemical; conditions: pH 7.4, 24 h, 10000 µM
[11] = target: Amyloid-beta precursor protein (Homo sapiens) (UniProt P05067); assay: Inhibition of amyloid beta (1 to 42) (unknown origin) self induced aggregation assessed as reduction in flat ribbons formation at 500 uM after 30 hrs by atomic force microscopic analysis
[12] = target: Amyloid-beta precursor protein (Homo sapiens) (UniProt P05067); assay: Inhibition of amyloid beta (1 to 42) (unknown origin) self induced aggregation assessed as reduction in protofibrils formation at 500 uM after 30 hrs by atomic force microscopic analysis
[13] = Inhibition of cupric ion-mediated amyloid beta (1 to 40) aggregation at 20 mM at pH 6.6 after 3 hrs by light scattering assay
[14] = target: Amyloid-beta precursor protein (Homo sapiens) (UniProt P05067); assay: Inhibition of amyloid beta (1 to 42) (unknown origin) self induced aggregation assessed as difference between final and initial fluorescence emission at 40 to 5000 uM […] in presence of trehalose by ThT-based fluorometric method (reference value: 52 +/- 7 a.u.)
[15] = target: Amyloid-beta precursor protein (Homo sapiens) (UniProt P05067); assay: Inhibition of amyloid beta (1 to 42) (unknown origin) self induced aggregation assessed as fluorescence emission rate constant K at 40 to 5000 uM […] in presence of trehalose by ThT-based fluorometric method (reference value: 1.3 +/- 0.1)
[16] = target: Amyloid-beta precursor protein (Homo sapiens) (UniProt P05067); assay: as §1, with “in presence of trehalose” for “after 3 hrs”
[17] = target: Amyloid-beta precursor protein (Homo sapiens) (UniProt P05067); assay: Inhibition of amyloid beta (1 to 42) (unknown origin) self induced aggregation assessed as Tlag at 40 to 5000 uM in presence of trehalose by ThT-based fluorometric method (reference value: 8.3 +/- 0.7 hrs)
[18] = Antiglycating activity in phosphate buffer assessed as decrease in ACR levels at 10 mM at pH 7.4 by RP-HPLC analysis; assay type: physicochemical; conditions: pH 7.4, 10000 µM, TDE = time-dependent effect
[19] = Stability of the compound assessed as human recombinant carnosinase mediated compound hydrolysis at 0.5 mM after 2.5 hrs by RP-HPLC analysis; assay type: ADME; conditions: 500 µM
[20] = target: Amyloid-beta precursor protein (Homo sapiens) (UniProt P05067); assay: Inhibition of amyloid beta (1 to 42) (unknown origin) self induced aggregation assessed as average assembled nanostructure height at 500 uM after 30 hrs by atomic force microscopic analysis

Amyloid-beta precursor protein (Homo sapiens), sequence (P05067 whole entry): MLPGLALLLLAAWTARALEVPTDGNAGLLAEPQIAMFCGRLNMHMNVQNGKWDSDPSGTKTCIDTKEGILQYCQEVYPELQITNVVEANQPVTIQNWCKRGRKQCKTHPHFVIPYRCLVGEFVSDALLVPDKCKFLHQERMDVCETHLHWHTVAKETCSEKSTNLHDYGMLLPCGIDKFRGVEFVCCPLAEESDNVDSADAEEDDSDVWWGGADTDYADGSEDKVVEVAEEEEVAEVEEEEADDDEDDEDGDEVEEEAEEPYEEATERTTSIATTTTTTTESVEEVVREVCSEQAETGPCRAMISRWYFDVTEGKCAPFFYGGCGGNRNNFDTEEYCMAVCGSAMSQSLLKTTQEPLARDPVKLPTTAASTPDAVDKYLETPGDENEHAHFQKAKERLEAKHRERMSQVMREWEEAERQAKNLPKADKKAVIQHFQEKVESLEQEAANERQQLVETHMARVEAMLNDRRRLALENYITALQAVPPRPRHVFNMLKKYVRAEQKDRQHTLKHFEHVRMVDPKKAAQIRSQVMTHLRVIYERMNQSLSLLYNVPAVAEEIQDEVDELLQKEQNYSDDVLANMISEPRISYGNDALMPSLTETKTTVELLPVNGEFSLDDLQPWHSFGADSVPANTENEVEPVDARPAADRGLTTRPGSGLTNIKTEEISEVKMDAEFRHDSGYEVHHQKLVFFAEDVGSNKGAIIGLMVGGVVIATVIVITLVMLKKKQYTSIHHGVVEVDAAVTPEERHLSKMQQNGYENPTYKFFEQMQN

OC[C@H]1O[C@H](O[C@H]2O[C@H](CO)[C@@H](O)[C@H](O)[C@H]2O)[C@H](O)[C@@H](O)[C@@H]1O
K [1]: 1.7 | Activity [2]: 37 a.u. | T1/2 [3]: 8.3 h | Tlag [4]: 4.7 h | Activity [5]: Dose-dependent effect

NCCC(=O)N[C@@H](Cc1cnc[nH]1)C(=O)O [CARNOSINE]
Activity [6]: 40% | Activity [7]: 0% | Activity [8]: Active | Drug metabolism [9]: Metabolite_Detected | Activity [10]: 0%

NCCC(=O)N[C@@H](Cc1c[nH]cn1)C(=O)O
K [1]: 1.9 | Activity [2]: 33 a.u. | T1/2 [3]: 7.8 h | Tlag [4]: 3.9 h | inhibition [11]: inactive | inhibition [12]: inactive | Activity [5]: Dose-dependent effect | inhibition [13]: Active | Activity [14]: 31 a.u. | K [15]: 2.7 | T1/2 [16]: 5.8 h | Tlag [17]: 4.3 h

O=C(CCNC[C@H]1O[C@H](O[C@H]2O[C@H](CO)[C@@H](O)[C@H](O)[C@H]2O)[C@H](O)[C@@H](O)[C@@H]1O)N[C@@H](Cc1c[nH]cn1)C(=O)O
Activity [18]: Tde | Activity [8]: Active | Stability [19]: Stable | K [1]: 0.7 | Activity [2]: 6 a.u. | T1/2 [3]: 4.1 h | Tlag [4]: 2.7 h | inhibition [11]: Active | inhibition [12]: Active | Activity [20]: 2.1 nm | Activity [5]: Dose-dependent effect | inhibition [13]: Active | Activity [10]: 1%
